Source: article PMC12040169 (PLOS Biology, 2025)

test: in vitro; settings: human, hela cells, % viability

Row | SMILES | viability at 28.5 h, 10 µM
1 | NC(=O)C1(N2CCCCC2)CCN(C(=O)CSc2nnc(-c3ccccc3)n2C2CCCCC2)CC1 [CBK266219] | 101%
2 | c1ccc2c(CN3CCCNCC3)cccc2c1 [CBK028773] | 81%
3 | O=C(NC(c1ccccn1)c1cccs1)C1CCN(S(=O)(=O)c2ccc(C(F)(F)F)cc2)CC1 (stereo not shown) [CBK060153] | 92.4%
4 | COc1ccc(C(c2ccccc2C)N(C)C(=O)C2CCN(C(C)=O)CC2)cn1 (stereo not shown) [CBK060490] | 90.8%
5 | COc1ccc(NS(=O)(=O)c2cccc(Cl)c2C)c(C(=O)NCc2ccccc2)c1 [CBK113953] | 85.3%
6 | Cn1nccc1C(=O)Nc1nc(-c2ccccc2)cs1 [CBK287833] | 83.8%
7 | CC(NS(=O)(=O)c1ccccc1Cl)C(=O)N1CCCC1 (stereo not shown) [CBK305994] | 93.2%
8 | Cc1cc(Cl)cc(Br)c1OCCNCCN(C)C [CBK267791G] | 102%
9 | Cc1ccccc1C(=O)NCCNC(=O)c1cccnc1 [CBK269222] | 96.2%
10 | CCN(CC)C(=O)C1CCCN(C(=O)NCCCSC)C1 (stereo not shown) [CBK156118] | 95.1%
11 | N#CCCN(Cc1ccco1)C(=O)c1ccc(OCC2CC2)cc1 [CBK304051] | 85%
12 | CC(=O)N1C[C@H](c2ccsc2)[C@H]2CN(Cc3cccs3)CC[C@H]21 [CBK284586] | 109%
13 | CCCCc1cc(=O)oc2cc(OCC(=O)O)ccc12 [CBK264205] | 99.4%
14 | O=c1[nH]cc([C@@H]2O[C@H](CO)[C@H](O)C2O)c(=O)[nH]1 (stereo partly shown) [CBK201172] | 103%
15 | O=C(O)CN1C(=O)C(O)=C(C(=O)c2ccc(Cl)cc2)C1c1ccccc1[N+](=O)[O-] (stereo not shown) [CBK263794] | 98.5%
16 | Cc1oc2c(c1C(=O)N(C)CCN1CCCCC1)CCCC2 [CBK281907] | 90.8%
17 | COc1ccc(COc2nccnc2N2CCCC2)cc1OC [CBK116613] | 94.8%
18 | CC(=O)Nc1ccc(C(=O)NC(c2cccs2)C2CCCC2)cc1 (stereo not shown) [CBK297777] | 84.1%
19 | Cc1ccc(S(=O)(=O)Nc2sccc2C(=O)O)cc1 [CBK042244] | 98.6%
20 | CC(C)CCNC(=O)c1c(O)c2ccccc2[nH]c1=O [CBK159975] | 91.7%
21 | COc1cccc(-c2nn(CCC#N)cc2C(=O)N2CCCCC2)c1 [CBK305942] | 101%
22 | COc1ccc(C(NC(=O)N(C(C)C)C(C)C)c2nccn2C)cc1 (stereo not shown) [CBK283568] | 111%
23 | CC(C)CSc1nc(O)cc(=O)n1Cc1ccccc1 [CBK291170] | 114%

Row | SMILES | viability at 28.5 h, 10 µM
24 | O=C(COc1ccc2ccccc2c1)Nc1ccc(S(=O)(=O)N2CCCCC2)cc1 [CBK263765] | 118%
25 | O=[N+]([O-])c1ccc(CCNCC(O)COc2cccc3c2CCCC3)cc1 (stereo not shown) [CBK003083] | 88.6%
26 | Cc1cc(C)nc(N2CCC(CC(=O)Nc3ccccc3CN3CCCC3)CC2)n1 [CBK286072] | 104%
27 | O=C(Cc1cccc2ccccc12)NC(NC(=S)Nc1ccccc1Br)C(Cl)(Cl)Cl (stereo not shown) [CBK261094] | 106%
28 | O=C(Nc1cccc(F)c1C(=O)Nc1ccc(F)cc1F)c1cccs1 [CBK066849] | 87.3%
29 | c1ccc(C[n+]2cn3cc(-c4ccccc4)nc3[n-]2)cc1 [CBK261654] | 94%
30 | Cc1ccc2[nH]c(-c3ccccc3NC(=O)CCCC(=O)O)nc2c1 [CBK295154] | 86%
31 | O=c1sn(C2CCCCC2)c(=O)n1Cc1ccc(F)cc1 [CBK113604] | 90.8%
32 | Cn1cncc1C(=O)NC1CCCC1 [CBK200256] | 95.5%
33 | O=C(O)c1ccc(NC2=NS(=O)(=O)c3ccccc32)cc1 [CBK287084] | 84.4%
34 | Cc1cc2oc(=O)c3c(c2cc1C)CCN(C)C3 [CBK017803] | 97%
35 | Cc1ccn2c(C3CCN(CCc4ccccc4)CC3)nc(-c3ccccc3)c2c1 [CBK035490] | 89.4%
36 | COc1cc([N+](=O)[O-])ccc1NC(=S)NNS(=O)(=O)c1cc(Cl)c(Cl)cc1Cl [CBK266863] | 96.2%
37 | CS(=O)(=O)N(CC(=O)Nc1ccc(S(N)(=O)=O)cc1)Cc1ccc(Cl)cc1 [CBK267512] | 98.8%
38 | COC(=O)c1ccc(F)c(NC(=O)C2CCCC2)c1 [CBK296640] | 85.5%
39 | CC(=O)N(C)c1ncc(Br)cc1C(=O)NCc1ccc2c(c1)CCO2 [CBK076544] | 93.5%
40 | O=C(C1=C(O)C(=O)N(CCCN2CCOCC2)C1c1ccccn1)c1ccccc1 (stereo not shown) [CBK266604] | 93.4%
41 | CC(C)(CO)CNc1cc(Cl)nc2ccnn12 [CBK037200] | 91%
42 | CCN1CC2(CCN(CCCC#N)CC2)c2ccccc21 [CBK136995] | 91.1%
43 | Cn1c(=O)n(C)c2cc(CNCc3cccnc3)ccc21 [CBK268432C] | 99.1%
44 | COc1ccc(C(=O)Nc2nnc(C3=COCCO3)o2)cc1 [CBK287409] | 93.9%
45 | Cc1nc(C(=O)NC2CC(=O)N(CCc3ccc(F)cc3)C2)cs1 (stereo not shown) [CBK307473] | 100%
46 | O=C(NCCO)c1nc(NCCO)c2ccccc2n1 [CBK267239] | 110%

Row | SMILES | viability at 28.5 h, 10 µM
47 | CCc1c(C)sc2ncn(C3CCNCC3)c(=O)c12 [CBK282972] | 81.2%
48 | CCOC(=O)c1cnc2cc(C)ccn2c1=O [CBK086650] | 93.1%
49 | CN1CCOc2ccccc2C(=O)NC/C=C/CC2(CCN(C(=O)c3ccc(F)cc3)CC2)C1=O [CBK292055] | 92%
50 | O=C(COc1ccc2ccccc2c1)Nc1ccc(CN2CCOCC2)cc1 [CBK265754] | 121%
51 | COc1ccc(Br)c(C(=O)Nc2cc(N3CCNCC3)c3occc3c2)c1 [CBK061757C] | 115%
52 | CCN(CC)C(=O)N1CCN(CCC#N)CC1 [CBK027538] | 94.9%
53 | O=C(CSc1nnc(-c2ccccc2)n1-c1ccccc1)N/N=C/c1coc2ccccc2c1=O [CBK262791] | 97.6%
54 | CC(=O)Nc1nc2[nH]c(C)c(Cc3ccccc3)c(=O)n2n1 [CBK288202] | 89%
55 | O=c1ccc(-c2cccs2)nn1C[C@H]1CCCN1 [CBK284313] | 88.6%
56 | O=S(=O)(Cc1ccccc1)Nc1nccnc1-c1cccs1 [CBK050766] | 91.3%
57 | CN1CCN(c2ccccc2NC(=O)CSc2ccc(Cl)cc2)CC1 [CBK267941] | 98.9%
58 | CCCCc1ccc(S(=O)(=O)Nc2nccnc2-c2cccs2)cc1 [CBK050770] | 90.4%
59 | Cc1ccc(CSCCNC(=O)/C=C/c2ccccc2)cc1 [CBK263985] | 95.3%
60 | Cc1ccc(S(=O)(=O)CC(=O)N2CCC3(CCN(C(=O)Cc4c[nH]c5ccccc45)C3)C2)cc1 (stereo not shown) [CBK131443] | 84%
61 | CCN(CC)CC(=O)Nc1ccc(Br)cc1C(=O)c1ccccc1 [CBK262983] | 109%
62 | CCCOc1ccc(S(=O)(=O)NCCN2CCOCC2)c2ccccc12 [CBK269045] | 99.1%
63 | COC(=O)c1ccc(NC(=O)CN2CCC(C(N)=O)(N3CCCCC3)CC2)cc1 [CBK268275] | 95.5%
64 | C/C(=N\NC(=O)c1ccc(CN2CCOCC2)cc1)c1ccc2c(c1)OCCO2 [CBK262755] | 92%
65 | C/C(=N\Nc1cc(-c2ccccc2)nc(C)n1)c1ccc(O)cc1 [CBK261710] | 87.9%
66 | O=C(O)c1cc2ncc(-c3n[nH]cc3[N+](=O)[O-])cn2n1 [CBK269072] | 100%
67 | CCc1nc2ccc(C(=O)N(C)Cc3ccco3)cn2c1N(C)Cc1cccs1 [CBK145552] | 98.5%
68 | Nc1cc2ccccc2c(-c2cccc(C(F)(F)F)c2)n1 [CBK085721] | 101%
69 | CC1CC(=O)Nc2ccccc2N1C(=O)Cn1c(=O)cnc2ccccc21 (stereo not shown) [CBK297116] | 95%

Row | SMILES | viability at 28.5 h, 10 µM
70 | CC(C)(C)c1cc(C(=O)NCCN)n(Cc2ccc(Cl)cc2Cl)n1 [CBK116631T] | 95.1%
71 | COc1cc(OC)cc(C(=O)Nc2nnc(C(F)(F)F)s2)c1 [CBK099828] | 88.7%
72 | COC(=O)CCC(=O)Nc1cccc([N+](=O)[O-])c1 [CBK261345] | 95.4%
73 | COc1ccc(CN2CCNC(=O)C2CC(=O)O)c(OC)c1 (stereo not shown) [CBK270072] | 112%
74 | OC1CSc2nc(-c3cnccn3)nn2C1 (stereo not shown) [CBK027096] | 97.8%
75 | CCOC(=O)c1sc(NC(=O)c2ccccc2Br)nc1C [CBK067745] | 90.2%
76 | CCC1CCCCN1C(=O)c1ccccc1OC (stereo not shown) [CBK083205] | 99.4%
77 | CCCOC(=O)N(O)c1ccc(Cl)c(Cl)c1 [CBK288400] | 94.4%
78 | Cc1ccc(C)c(C(NC(=O)CCCn2ccnc2)c2ccncc2)c1 (stereo not shown) [CBK281476] | 96.1%
79 | c1cncc(CNc2cccc(OCCOc3nccnc3N3CCNCC3)c2)c1 [CBK200008] | 89.2%
80 | CC(C)(C)CC(C)(C)Nc1nc(N)nc(N)n1 [CBK022832] | 101%
81 | COc1cc(CNCc2cccs2)cc(Cl)c1OCC(N)=O [CBK270237C] | 87.6%
82 | COCc1cccc(-c2ncc(OCC3COc4ccccc4O3)nc2N)c1 (stereo not shown) [CBK145113] | 93.1%
83 | COc1nccnc1OC1CCN(CCc2ccccc2)CC1 [CBK084258] | 95%
84 | COc1ccccc1CC(C)NC(=O)c1cc(C2CC2)nn1C (stereo not shown) [CBK283290] | 83.8%
85 | CC(C)(C)c1cc(C(=O)N2CCN(c3ncccn3)CC2)n(Cc2ccc(Cl)cc2Cl)n1 [CBK107294] | 105%
86 | CC(NS(=O)(=O)c1cc(Cl)ccc1Cl)C(=O)Nc1ccccc1 (stereo not shown) [CBK267871] | 110%
87 | COc1ccc([C@@]23CC[C@H](NC(=O)Nc4ccc(F)c(F)c4)C[C@@H]2N(Cc2ccccc2)CC3)cc1OC [CBK041333T] | 94.5%
88 | CCC1SC2=NC(C)=C(C(=O)OCc3ccccc3)C(c3ccccc3)N2C1=O (stereo not shown) [CBK293960] | 82.7%
89 | N#Cc1cccc(CN2CC[C@H](c3nnc(-c4ccco4)o3)C2)c1 [CBK289394] | 92.5%
90 | Cc1ccnc2nc(C(=O)OCC(=O)Nc3ccc4c(c3)CCC4)nn12 [CBK305853] | 82.1%

same assay, conditions: human, hela cells, % viability, bulk resorufin, single well

Row | SMILES | viability at 28.5 h, 10 µM
91 | CCOC(=O)C1(c2ccccc2)CCN(C(=O)CC(C)(C)N)CC1 [CBK137117] | 96.6%
